Source: the NIST ThermoML archive (doi:10.1016/j.fluid.2018.09.023)
Numbers after ± are expanded uncertainties.

Test: Solid-liquid equilibrium temperature
Settings: 101 kPa, visual observation
With `COC(=O)OC` [dimethyl carbonate] the Solid-liquid equilibrium temperature was 278.11 ± 4 K.
Compound `O=C(Oc1ccccc1)Oc1ccccc1` [diphenyl carbonate] has a Solid-liquid equilibrium temperature of 352.7 ± 4 K.

Test: not given
Settings: 298.15 K; 101.33 kPa; Liquid; Vibrating tube method
Work on `CCOC(=O)OCC` [diethyl carbonate] yielded a mass density of 969.18 ± 0.07 kg/m3.
With `COC(=O)OC` [dimethyl carbonate] the mass density was 1063.26 ± 0.08 kg/m3.
With `CCCOC(=O)OCCC` [dipropyl carbonate] the mass density was 938.35 ± 0.13 kg/m3.
`CCO` [ethanol] gave a mass density of 785.02 ± 0.13 kg/m3.
With `CCCO` [propan-1-ol] the mass density was 800.06 ± 0.12 kg/m3.
Compound `CC(C)O` [propan-2-ol] has a mass density of 780.79 ± 0.13 kg/m3.
